The values that follow come from article PMC11249239 (PLOS ONE, 2024).

As usually defined, the EC50 is the concentration needed to bring the measured effect to its halfway point.

In series [1] the test system is MCF10A normal breast epithelial cells. The series can be described thus: Cell growth inhibition (CCK8 cytotoxicity assay), MCF10A. Type of series: cell-based. As to conditions: 48 h treatment, read-out: Average EC50 ± SD, cell growth inhibition.
The nature of series [2]: Plasma pharmacokinetics after intravenous administration. Type of series: in vivo, Sprague-Dawley rats. The note with it: 20 mg/kg IV. From the text:
A commercial vendor (Medicilon, Inc.) performed the pharmacokinetic studies. Male Sprague-Dawley Rats (n = 8) were received from Sino-British SIPPR/BK Lab Animal Ltd., Shanghai, and 6 animals were placed on study. All studies were approved by the Institutional Animal Care and Use Committee (Protocol #: 19098–17002) of Medicilon Preclinical Research-Shanghai LLC, Pudong Shanghai 201200, P.R. China. The animals were allowed to acclimatize for at least 5 d before beginning the study. The procedure was performed under general anesthesia with 3–5% isoflurane for blood collections via jugular vein. All efforts were made to minimizing suffering and least stressful. The compound was dissolved in 5% DMSO + 40% PEG400 + 55% PBS to yield a final concentration of 2 mg/ml. The tolerated dose (20 mg/Kg) was administered via intravenous (IV) in rats. After IV administration, blood samples were collected via jugular vein at various time points (0, 1, 2, 4, 6, and 8 h) under general anesthesia with 3–5% isoflurane. Samples were then placed into tubes containing K2EDTA and centrifuged at 8,000 rpm for 6 min to obtain plasma. The resulting plasma were analyzed by LCMS. Following completion of the study, all surviving animals were euthanized with CO2, followed by cervical dislocation. Pharmacokinetic analysis was determined using a non-compartmental module of WinNonlin Professional 5.2. The maximum measured plasma concentrations (Cmax) and the time of Cmax (tmax) were derived directly from the data. The area under the curve (AUC) was calculated using the log-linear trapezoidal method rule up to the last data point and was extrapolated to infinity with the following formula: Clast/β, where Clast is the last measured concentration time point. The elimination half-life was calculated with the equation t1/2 = 0.693/β, where β is the terminal rate constant. The clearance (Cl = dose/AUC) rate was also evaluated.

Series [3] deals with acetylated histone 3 lysine 9 (H3K9ac). The series is described as follows: Western blot, acetylation of histone H3 lysine 9. Type of series: cell-based. As to conditions: MCF7 and MDA-MB-231; 1 μM; within 0.5 h. From the text: (§1) Following treatment of cells with SP-1-303 over a time course, total or nuclear proteins were extracted and analyzed on 4–20% trisglycine gradient sodium dodecyl sulfate polyacrylamide gel electrophoresis (SDS-PAGE). Subsequently, membranes were probed with antibodies targeting specific proteins in accordance with the manufacturers’ protocols, including ATM (ab78), p-BRCA1 (ab90528), BRCA1 (ab191042), p-p53/S15 (ab1431), acetylated H3K9 (ab12179) from Abcam, as well as p-ATM (# 5883) and p53 (#9282) from Cell Signaling, α-tubulin (T6793) and β-actin (A3854) from Sigma-Aldrich, ER-α (cat# MA1-80216, Invitrogen) and HDAC2 (BML-SA402. Enzo). Protein images were captured using ECL Prime Western Blotting Detection Reagents (Cat#. RPN2232, Amersham) and the Amersham Imager 600. For immunofluorescent analysis, formalin fixed cells were permeabilized with 0.1% Triton X-100 in TBS for 10 minutes at room temperature, followed by blocking with 1% Blocker BSA for 15 minutes at room temperature. Cells were then probed with a phospho-ATM monoclonal antibody (MA5-15185) and DyLight 488 goat anti-mouse IgG secondary antibody at room temperature. Actin was stained with DyLight 554 phalloidin, while nuclei were stained with 4’,6-diamidino-2-phenylindole dye (DAPI). Images were captured using a Nikon Epi Fluorescent microscopy.

For series [4], the system named is acetylated α-tubulin. The series can be described thus: Western blot, acetylation of α-tubulin. Type of series: cell-based. As to conditions: MCF7 and MDA-MB-231; 1 μM; time dependent.
Description: as §1
(In general: Immunoblotting shows a protein as a band on a membrane.)

For series [5], the system named is phosphorylated p53. The series can be described thus: Western blot, phosphorylated p53. Type of series: cell-based. The note with it: 1 μM.
Description: as §1

Like-named read-outs stand apart in the source and are kept apart here.

As to `Cc1[nH]c2ccccc2c1C1=C(c2c(C)[nH]c3ccccc23)C(=O)N(CCCCCCC(=O)NO)C1=O` [SP-1-303], the EC50 in series [1] was 12.2 µM; in series [1] (Homo sapiens, MCF-10A, 48 h), about 12 µM. Also, the Tmax in series [2] (male, Sprague-Dawley, plasma, rat, mean value, read-out: tmax, time to reach maximum plasma concentration) is 4.98 min. The half-life in series [2] (male, Sprague-Dawley, plasma, rat, read-out: t1/2, elimination half-life (converted)) was 75.6 min. The “compound remaining in plasma at 4 h” value in series [2] (rat plasma, 4 h) turned out to be 1%. Further, the “AUC, area under the curve” value in series [2] (rat) stood at 5227.55 ng/ml x h. Also, the “acetylation of histone H3 lysine 9 (H3K9)” value in series [3] is reported as “significantly enhanced”. Also, in series [4], the “acetylation of α-tubulin” value is on record as “gradually increased”. The “phosphorylated p53” value in series [5] (MCF7, within 1h to 2h) was “induction”; in series [5] (MDA-MB-231), “no phosphorylated p53”.
